# Source: ChEMBL document CHEMBL1151030, “Synthesis of tetrazol-1-yl analogs of HMG-COA reductase inhibitor BMS180431 (formerly BMY21950)” (Bioorg Med Chem Lett, 1992)
# How the values were obtained:
# [1] = molecular target: T1, 3-hydroxy-3-methylglutaryl-coenzyme A reductase (Mus musculus, UniProt Q01237); assay: In vitro inhibitory activity against isolated enzyme HMG-CoA reductase
# T1 sequence (Q01237 whole entry): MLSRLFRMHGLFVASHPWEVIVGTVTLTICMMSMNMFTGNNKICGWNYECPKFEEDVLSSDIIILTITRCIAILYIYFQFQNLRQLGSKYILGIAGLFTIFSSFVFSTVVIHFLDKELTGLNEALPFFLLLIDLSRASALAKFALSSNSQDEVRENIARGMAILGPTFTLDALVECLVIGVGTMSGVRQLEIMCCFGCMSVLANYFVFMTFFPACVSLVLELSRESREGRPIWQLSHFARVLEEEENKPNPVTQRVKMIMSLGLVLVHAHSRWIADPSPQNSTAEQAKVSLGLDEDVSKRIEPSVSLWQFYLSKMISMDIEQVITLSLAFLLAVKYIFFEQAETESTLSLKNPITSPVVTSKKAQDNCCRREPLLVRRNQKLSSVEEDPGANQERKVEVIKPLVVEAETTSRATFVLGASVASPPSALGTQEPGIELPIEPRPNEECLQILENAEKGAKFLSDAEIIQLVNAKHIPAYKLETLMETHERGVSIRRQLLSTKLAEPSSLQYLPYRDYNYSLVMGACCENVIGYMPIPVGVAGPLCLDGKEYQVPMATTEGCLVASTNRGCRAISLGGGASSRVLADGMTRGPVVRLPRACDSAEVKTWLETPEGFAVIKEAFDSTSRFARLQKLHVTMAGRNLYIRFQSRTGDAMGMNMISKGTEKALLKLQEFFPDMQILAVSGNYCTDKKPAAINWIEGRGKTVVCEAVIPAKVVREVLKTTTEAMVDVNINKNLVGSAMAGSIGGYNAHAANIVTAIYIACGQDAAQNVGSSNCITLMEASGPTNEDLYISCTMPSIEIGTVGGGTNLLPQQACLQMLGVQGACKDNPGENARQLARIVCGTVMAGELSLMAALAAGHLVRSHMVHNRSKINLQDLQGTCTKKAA
# [2] = molecular target: T2, 3-hydroxy-3-methylglutaryl-coenzyme A reductase (Rattus norvegicus, UniProt P51639); assay: Compound was evaluated for inhibitory activity against HMG-CoA reductase from rat hepatocyte; type: cell-based
# T2 sequence (P51639 whole entry): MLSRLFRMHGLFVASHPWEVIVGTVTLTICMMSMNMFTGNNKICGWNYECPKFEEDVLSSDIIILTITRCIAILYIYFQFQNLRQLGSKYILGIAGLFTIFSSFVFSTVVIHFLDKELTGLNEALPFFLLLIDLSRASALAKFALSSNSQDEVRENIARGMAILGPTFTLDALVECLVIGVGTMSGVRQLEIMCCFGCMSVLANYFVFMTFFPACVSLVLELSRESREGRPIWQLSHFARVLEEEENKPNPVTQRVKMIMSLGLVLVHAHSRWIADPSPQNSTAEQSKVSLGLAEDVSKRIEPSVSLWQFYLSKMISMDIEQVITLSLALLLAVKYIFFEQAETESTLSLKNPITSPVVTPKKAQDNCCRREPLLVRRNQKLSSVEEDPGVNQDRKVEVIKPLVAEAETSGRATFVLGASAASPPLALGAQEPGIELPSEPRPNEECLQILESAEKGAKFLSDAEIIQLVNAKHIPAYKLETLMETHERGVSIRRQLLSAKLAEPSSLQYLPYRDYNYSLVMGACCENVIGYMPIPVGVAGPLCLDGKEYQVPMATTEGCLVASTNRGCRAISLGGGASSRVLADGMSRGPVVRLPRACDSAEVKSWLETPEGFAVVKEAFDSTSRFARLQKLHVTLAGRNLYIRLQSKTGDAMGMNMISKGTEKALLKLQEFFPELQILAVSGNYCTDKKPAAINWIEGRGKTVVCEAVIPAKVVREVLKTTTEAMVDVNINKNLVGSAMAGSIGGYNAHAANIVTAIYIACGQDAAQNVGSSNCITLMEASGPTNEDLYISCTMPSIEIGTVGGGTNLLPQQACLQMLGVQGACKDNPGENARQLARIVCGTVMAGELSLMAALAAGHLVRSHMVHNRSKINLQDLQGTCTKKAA
# [3] = molecular target: T3, 3-hydroxy-3-methylglutaryl-coenzyme A reductase (Homo sapiens, UniProt P04035); assay: Compound was evaluated for inhibitory activity against HMG-CoA reductase in HepG2 cells; type: cell-based
# T3 sequence (P04035 whole entry): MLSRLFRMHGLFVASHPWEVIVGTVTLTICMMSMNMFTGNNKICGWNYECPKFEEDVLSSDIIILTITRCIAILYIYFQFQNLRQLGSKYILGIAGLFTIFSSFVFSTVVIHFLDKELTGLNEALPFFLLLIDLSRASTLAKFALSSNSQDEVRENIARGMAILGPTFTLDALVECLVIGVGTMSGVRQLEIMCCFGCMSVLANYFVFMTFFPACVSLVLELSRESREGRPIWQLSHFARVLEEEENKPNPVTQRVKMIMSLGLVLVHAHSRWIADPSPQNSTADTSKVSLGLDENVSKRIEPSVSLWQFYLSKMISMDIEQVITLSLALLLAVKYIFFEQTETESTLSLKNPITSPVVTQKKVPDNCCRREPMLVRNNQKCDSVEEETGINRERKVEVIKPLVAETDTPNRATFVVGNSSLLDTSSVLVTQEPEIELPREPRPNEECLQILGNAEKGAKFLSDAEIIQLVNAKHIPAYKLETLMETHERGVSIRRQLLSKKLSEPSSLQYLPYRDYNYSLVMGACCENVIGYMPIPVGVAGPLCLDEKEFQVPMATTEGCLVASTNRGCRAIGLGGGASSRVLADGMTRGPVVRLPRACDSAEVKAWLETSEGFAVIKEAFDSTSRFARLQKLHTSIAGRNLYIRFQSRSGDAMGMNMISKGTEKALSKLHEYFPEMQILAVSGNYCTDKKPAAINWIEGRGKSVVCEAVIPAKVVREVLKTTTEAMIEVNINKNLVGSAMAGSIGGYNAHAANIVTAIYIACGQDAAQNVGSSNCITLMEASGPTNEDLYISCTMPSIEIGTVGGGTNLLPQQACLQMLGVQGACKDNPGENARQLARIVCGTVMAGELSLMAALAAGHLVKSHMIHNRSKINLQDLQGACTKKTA
# Hepatocyte = assay: Ratio of inhibitory activity of HepG2 to hepatocyte; type: cell-based
# [4] = molecular target: T3, 3-hydroxy-3-methylglutaryl-coenzyme A reductase; assay: Compound was evaluated for inhibitory activity against HMG-CoA reductase in adrenal cell preparation; type: cell-based
# [5] = molecular target: T2, 3-hydroxy-3-methylglutaryl-coenzyme A reductase; assay: Compound was evaluated for inhibitory activity against HMG-CoA reductase in spleen cell preparation; type: tissue-based
# HepG2 = assay: Ratio of inhibitory activity against HMG-CoA reductase of HepG2 cells vs hepatocytes; type: cell-based
# [6] = molecular target: T2, 3-hydroxy-3-methylglutaryl-coenzyme A reductase; assay: Compound was evaluated for inhibitory activity against HMG-CoA reductase in testes cell preparation; type: tissue-based, Testis
IC50 [1] [µM],IC50 [2] [µM],IC50 [3] [µM],IC50 [4] [µM],IC50 [5] [µM],IC50 [6] [µM],SMILES,Ratio (Hepatocyte),Ratio (HepG2)
0.027,–,–,–,–,–,CC[C@H](C)C(=O)O[C@H]1C[C@@H](C)C=C2C=C[C@H](C)[C@H](CC[C@@H]3C[C@@H](O)CC(=O)O3)[C@H]21 [LOVASTATIN],–,–
0.63,0.1,1.29,–,–,–,Cc1nnnn1C(/C=C/[C@@H](O)C[C@@H](O)CC(=O)O)=C(c1ccc(F)cc1)c1ccc(F)cc1,13,–
0.043,–,1.34,1.6,3.2,1.8,Cn1nnnc1C(/C=C/[C@@H](O)C[C@@H](O)CC(=O)O)=C(c1ccc(F)cc1)c1ccc(F)cc1,–,62
0.12,0.02,1.72,–,–,–,O=C(O)C[C@H](O)C[C@H](O)/C=C/C(=C(c1ccc(F)cc1)c1ccc(F)cc1)n1cnnn1,–,86
> 100,–,–,–,–,–,O=C(O)C[C@H](O)C[C@H](O)/C=C/C(=C(c1ccc(F)cc1)c1ccc(F)cc1)n1nnnc1-c1ccccc1,–,–
